The values that follow come from paper PMC10766610, “DCAF1-based PROTACs with activity against clinically validated targets overcoming intrinsic- and acquired-degrader resistance” (Nature Communications, 2024).

One data set deals with T1, CSK (Homo sapiens, UniProt P41240).
T1 construct: host or cells: HEK293T
Kind of data set: Immunoblot of CSK in HEK293T cells. The note with it: 6 h. The class given is cell-based. How it is done:
(§1) Whole cell lysates for immunoblotting were prepared by pelleting cells at 4 °C (300 g) for 3 min. Cell pellets were then washed 1x with PBS and resuspended in RIPA lysis buffer (VWR, cat # 97063-270) supplemented with protease (Thermo Scientific, cat # A32955) and phosphatase (Thermo Scientific, cat # A32957) inhibitor tablets. Lysates were clarified at 16,000 × g for 15 min at 4 °C prior to quantification by Lowry assay (Bio-Rad cat # 5000113 and cat # 5000114). Whole-cell lysates were loaded into 4–20% Criterion TGX Precast 18 well gels (Bio-Rad, cat # 5671094) and separated by electrophoreses at 120 V for 1 h. The gels were transferred to a nitrocellulose membrane using the Trans-Blot Turbo (Bio-Rad) for 7 min and then blocked for 1 h at room temperature in Odyssey blocking buffer (LICOR Biosciences, cat # 927-50000). Membranes were probed with the appropriate primary antibodies (diluted 1:1000) overnight at 4 °C in 20% Odyssey blocking buffer in 1x TBST. Membranes were washed three times with 1x TBST (5 min per wash), and then incubated with IRDye goat anti-mouse (LICOR, cat # 926-32210) or goat anti-rabbit (LICOR, cat # 926-32211) secondary antibody diluted 1:10,000 in 20% Odyssey blocking buffer for 1 h at room temperature. After three 5-min washes with 1x TBST, the immunoblots were visualized using the ODYSSEY Infrared Imaging System (LICOR). […]
(In western blotting, separated proteins are transferred to a membrane and probed.)

The next data set deals with T2, ABL1 (Homo sapiens, UniProt P00519).
T2 construct: host or cells: HEK293T
T2 sequence (P00519 whole entry): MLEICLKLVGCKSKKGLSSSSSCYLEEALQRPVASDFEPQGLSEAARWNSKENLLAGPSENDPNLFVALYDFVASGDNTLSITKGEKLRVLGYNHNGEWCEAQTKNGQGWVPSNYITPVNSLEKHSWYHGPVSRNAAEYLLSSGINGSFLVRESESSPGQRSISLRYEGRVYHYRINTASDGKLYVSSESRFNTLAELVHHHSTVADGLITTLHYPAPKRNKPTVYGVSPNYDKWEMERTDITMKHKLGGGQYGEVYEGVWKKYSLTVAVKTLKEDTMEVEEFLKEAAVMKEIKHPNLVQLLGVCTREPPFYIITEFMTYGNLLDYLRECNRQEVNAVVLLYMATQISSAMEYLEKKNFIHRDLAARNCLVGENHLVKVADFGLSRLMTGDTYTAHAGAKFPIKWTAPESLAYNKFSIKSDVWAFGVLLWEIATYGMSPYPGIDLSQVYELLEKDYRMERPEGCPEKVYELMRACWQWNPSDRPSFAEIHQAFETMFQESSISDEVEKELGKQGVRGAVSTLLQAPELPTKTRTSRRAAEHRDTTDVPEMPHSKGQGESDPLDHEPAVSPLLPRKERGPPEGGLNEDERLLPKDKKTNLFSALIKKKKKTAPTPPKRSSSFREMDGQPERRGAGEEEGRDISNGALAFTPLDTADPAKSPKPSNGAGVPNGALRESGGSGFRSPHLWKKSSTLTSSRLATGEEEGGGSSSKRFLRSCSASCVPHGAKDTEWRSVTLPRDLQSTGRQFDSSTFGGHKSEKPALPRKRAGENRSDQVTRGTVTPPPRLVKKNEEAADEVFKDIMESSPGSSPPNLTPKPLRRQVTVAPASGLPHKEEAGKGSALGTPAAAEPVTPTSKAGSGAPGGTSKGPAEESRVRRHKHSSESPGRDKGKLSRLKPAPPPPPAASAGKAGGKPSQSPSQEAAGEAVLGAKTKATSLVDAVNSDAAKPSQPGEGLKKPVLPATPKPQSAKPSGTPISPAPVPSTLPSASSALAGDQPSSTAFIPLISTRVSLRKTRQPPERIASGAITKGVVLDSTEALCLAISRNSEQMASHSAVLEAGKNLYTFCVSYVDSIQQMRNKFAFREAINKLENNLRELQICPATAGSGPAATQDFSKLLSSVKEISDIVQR
The experiment in a line: Immunoblot of ABL1 in HEK293T cells. Format: cell-based. The following applies: 6 h. How it is done:
as §1

For the next data set, the target named is T3, LIMK2 (Homo sapiens, UniProt P53671).
T3 construct: host or cells: HEK293T
T3 sequence (P53671 whole entry): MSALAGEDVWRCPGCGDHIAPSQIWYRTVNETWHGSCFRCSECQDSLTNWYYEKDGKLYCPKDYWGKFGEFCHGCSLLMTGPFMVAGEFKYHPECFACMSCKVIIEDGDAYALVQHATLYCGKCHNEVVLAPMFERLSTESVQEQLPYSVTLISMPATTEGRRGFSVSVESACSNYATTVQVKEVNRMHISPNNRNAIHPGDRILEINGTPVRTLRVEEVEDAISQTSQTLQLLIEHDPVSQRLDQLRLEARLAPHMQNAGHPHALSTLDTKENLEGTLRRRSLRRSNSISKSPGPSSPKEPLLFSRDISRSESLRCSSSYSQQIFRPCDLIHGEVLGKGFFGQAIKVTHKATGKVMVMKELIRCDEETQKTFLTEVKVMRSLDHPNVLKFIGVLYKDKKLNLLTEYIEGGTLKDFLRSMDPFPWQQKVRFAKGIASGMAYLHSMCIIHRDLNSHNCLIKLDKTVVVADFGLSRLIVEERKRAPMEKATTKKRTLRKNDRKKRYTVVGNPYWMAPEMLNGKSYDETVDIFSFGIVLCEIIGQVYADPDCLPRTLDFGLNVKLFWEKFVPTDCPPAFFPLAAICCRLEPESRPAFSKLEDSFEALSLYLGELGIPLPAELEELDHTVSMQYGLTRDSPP
The experiment in a line: Immunoblot of LIMK2 in HEK293T cells. Format: cell-based. The note with it: 6 h. How it is done: as §1

The target in a further data set is BTK (Homo sapiens, UniProt Q06187). The experiment in a line: Immunoblot of BTK in TMD8 WT and CRBN (CBt) resistant cells. Format: cell-based. Also on record: performed with full-length BTK and endogenous DCAF1; expressed in transfected cells; host or cells: TMD8 cells, lentiviral, blasticidin-selected (TMD8 BTK-GFP/mCh). The note with it: 24 h; 0.1 µM CBt, 1 µM DBt-10. How it is done:
as §1

For the next data set, the target named is T4, BRD9 (Homo sapiens, UniProt Q9H8M2).
T4 sequence (Q9H8M2 1-597): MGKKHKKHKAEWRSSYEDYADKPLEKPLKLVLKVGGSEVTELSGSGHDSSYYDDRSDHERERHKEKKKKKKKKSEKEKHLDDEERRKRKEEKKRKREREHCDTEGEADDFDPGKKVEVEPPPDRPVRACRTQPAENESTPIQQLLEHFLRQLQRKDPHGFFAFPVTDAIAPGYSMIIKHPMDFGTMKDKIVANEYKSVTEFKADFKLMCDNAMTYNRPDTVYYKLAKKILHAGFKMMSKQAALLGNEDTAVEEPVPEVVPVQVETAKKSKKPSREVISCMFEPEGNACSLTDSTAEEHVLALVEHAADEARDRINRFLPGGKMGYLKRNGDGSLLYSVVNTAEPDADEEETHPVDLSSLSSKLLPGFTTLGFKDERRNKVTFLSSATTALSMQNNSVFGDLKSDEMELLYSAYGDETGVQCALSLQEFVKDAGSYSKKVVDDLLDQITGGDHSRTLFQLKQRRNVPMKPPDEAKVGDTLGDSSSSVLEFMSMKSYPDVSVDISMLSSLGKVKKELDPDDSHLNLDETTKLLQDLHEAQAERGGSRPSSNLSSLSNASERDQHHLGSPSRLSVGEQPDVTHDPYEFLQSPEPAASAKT
The experiment in a line: BRD9-HiBiT protein abundance luminescence assay in HEK293 cells. The following applies: 2 h.

A further data set concerns TMD8 BTK-GFP/mCh cells. The experiment in a line: Viability by FSC/SSC gate (flow cytometry) in TMD8 BTK-GFP/mCh cells. Format: cell-based, human. The method in brief:
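TMD8 BTK-GFP/mCh cells (25,000/well) dosed with compound for 24 h and analysed by flow cytometry. Viability is the decline in percentage of single cells within an FSC/SSC gate defined by DMSO-treated cells; three biological replicates, 4-parameter logistic fit.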
For orientation: Flow cytometry measures light scatter and fluorescence of single cells or particles in a stream.

Read-outs that look alike come from different tables or passages of the source.

BTK, sequence (Q06187 2-659 limits assumed): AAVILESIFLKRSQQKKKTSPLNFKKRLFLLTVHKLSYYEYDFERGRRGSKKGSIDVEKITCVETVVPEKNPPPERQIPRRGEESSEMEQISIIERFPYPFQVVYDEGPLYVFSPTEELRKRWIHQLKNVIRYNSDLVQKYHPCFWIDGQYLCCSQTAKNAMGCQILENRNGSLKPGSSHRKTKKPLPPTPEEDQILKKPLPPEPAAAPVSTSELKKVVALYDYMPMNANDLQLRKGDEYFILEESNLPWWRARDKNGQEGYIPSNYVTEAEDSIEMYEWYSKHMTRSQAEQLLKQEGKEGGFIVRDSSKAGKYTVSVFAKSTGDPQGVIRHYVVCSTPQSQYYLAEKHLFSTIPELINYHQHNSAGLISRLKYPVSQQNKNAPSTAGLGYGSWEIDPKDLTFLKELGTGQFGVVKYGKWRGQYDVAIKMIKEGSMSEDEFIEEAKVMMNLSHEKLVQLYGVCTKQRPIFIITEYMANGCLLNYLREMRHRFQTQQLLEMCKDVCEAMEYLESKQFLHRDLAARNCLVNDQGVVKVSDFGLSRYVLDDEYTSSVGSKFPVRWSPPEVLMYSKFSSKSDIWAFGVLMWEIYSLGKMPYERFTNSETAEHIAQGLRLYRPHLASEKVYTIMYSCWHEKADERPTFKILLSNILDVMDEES
T1 sequence (P41240 whole entry): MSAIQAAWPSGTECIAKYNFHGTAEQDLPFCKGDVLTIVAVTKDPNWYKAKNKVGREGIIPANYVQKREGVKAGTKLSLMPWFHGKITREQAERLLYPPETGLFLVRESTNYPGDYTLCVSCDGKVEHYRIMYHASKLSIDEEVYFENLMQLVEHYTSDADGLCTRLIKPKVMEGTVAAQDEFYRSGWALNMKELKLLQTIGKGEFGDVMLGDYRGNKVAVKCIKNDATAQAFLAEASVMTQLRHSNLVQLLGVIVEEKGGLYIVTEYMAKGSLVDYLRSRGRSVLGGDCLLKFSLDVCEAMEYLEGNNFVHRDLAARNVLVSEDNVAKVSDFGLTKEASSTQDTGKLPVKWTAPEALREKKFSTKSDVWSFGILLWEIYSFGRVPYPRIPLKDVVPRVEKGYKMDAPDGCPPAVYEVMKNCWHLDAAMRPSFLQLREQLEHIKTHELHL
Description for BRD9: HEK293/BRD9-HiBiT pools (PROMEGA # CS3023120) and HEK293/BRD7-HiBiT pools (PROMEGA # CS3023124) were purchased from Promega. We performed clonal selection for HEK293/BRD9-HiBiT cell line using single-cell sorting and screening for HiBiT expression using Nano-Glo HiBiT Lytic Detection System (Promega # N3030). The HEK293/BRD9-HiBiT clone and HEK293/BRD7-HiBiT pool to perform standard HiBiT assays.

In the case of `Cc1nc(Nc2ncc(C(=O)Nc3c(C)cccc3Cl)s2)cc(N2CCC(OC3CCN(CCCCCCCC(=O)N4CCN(c5ccc6c(NCCN)nc(C7(c8ccc(Cl)cc8)CCCCC7)nc6c5)CC4)CC3)CC2)n1` [DDa-1], the CSK protein levels result at CSK was “significant reduction in protein levels”. Moreover, on ABL1, the ABL1 protein levels entry is on record as “not”. Moreover, on LIMK2, the LIMK2 protein levels entry is given as “significant reduction in protein levels”.

On to `Cc1c(NC(=O)N2CC(O)(CC(C)(C)C)C2)cc(F)cc1-c1ncnc2[nH]c(-c3cnn(CC(=O)N4CCC5(CC4)CN(CCNC(=O)CCCC(=O)N4CCN(c6ccc7c(NCCN)nc(C8(c9ccc(Cl)cc9)CCCCC8)nc7c6)CC4)CCO5)c3)cc12` [DBt-10], for which the “BTK degradation in TMD8 CBt sensitive (WT) vs resistant cells” value on BTK was “equipotent degradation of BTK”.

Regarding `COc1cc(-c2cn(C)c(=O)c3cnccc23)c(OC)cc1CN1CCC(OCCCCCC(=O)N2CCN(c3ccc4c(NCCN)nc(C5(c6ccc(Cl)cc6)CCCCC5)nc4c3)CC2)CC1` [DBr-1], the DC50 at BRD9 (read-out: DC50 BRD9-HiBiT, BRD9-HiBiT/CAS9/FF cells) amounted to 193 nM; at BRD9 (read-out: DC50 BRD9, HEK293/BRD9-HiBiT cells), 90 nM.

As to `CC(=O)N1CCN(c2ccc3c(NCCN)nc(C4(c5ccc(Cl)cc5)CCCCC4)nc3c2)CC1` [compound 13], in the data set on TMD8 BTK-GFP/mCh cells (TMD8 BTK-GFP/mCh, 24 h), the “concentrations with loss of viability” value is reported as greater than 5 µM. The “concentrations leading to cellular toxicity” value with TMD8 BTK-GFP/mCh cells (discussion) was 5 to 10 µM.
